PubChem BioAssay AID790 (SRMLSC, 2007)
The source made the active and inactive calls. The rule behind the calls is not given here.

What was measured:
[1] = system: S. cerevisiae vps1Δ mutant growth inhibition; assay: vps1Δ single mutant yeast growth suppression – S. cerevisiae, background strain comparison, dose response (AID 790)
[2] = as above; conditions: S. cerevisiae vps1Δ mutant growth inhibition; measured here: background strain growth inhibition

Row | Structure (SMILES) | IC50 [1] | IC50 [2] [µM]
1 | O=[N+]([O-])c1cc(C(F)(F)F)ccc1N/N=C/c1cc2ccccc2nc1Cl | > 10 µM (inactive) | > 10
2 | Cc1cc(C)nc(NC(=O)CSc2nn(C)c(=S)s2)n1 | > 10 µM (inactive) | > 10
3 | CC1CC(C)CN(CC(C)(C)NS(=O)(=O)c2ccc(Cl)cc2)C1 (centres undefined) | > 10 µM (inactive) | > 10
4 | ON=Cc1cccn1-c1ccccc1 | > 10 µM (inactive) | > 10
5 | COc1cc2[nH]c(=S)n(CCCN3CCOCC3)c(=O)c2cc1OC | > 10 µM (inactive) | > 10
6 | CCOC(=O)Cn1cc(C=O)c2ccccc21 | > 10 µM (inactive) | > 10
7 | O=C(O)c1ccc(N2CCCCC2)cc1 | > 10 µM (inactive) | > 10
8 | COc1ccc(Nc2nc(N)nc(CSc3nnc(N)s3)n2)cc1 | > 10 µM (inactive) | > 10
9 | CCCCSCCCNC(=O)Nc1cccc(OC)c1 | > 10 µM (inactive) | > 10
10 | CCOC(=O)COc1ccccc1C1Nc2ccccc2C(=O)N1c1cccc(Cl)c1 (centres undefined) | > 10 µM (inactive) | > 10
11 | Cc1ccc2cc(CN(CCO)Cc3nnnn3Cc3ccc(F)cc3)c(=O)[nH]c2c1 | > 10 µM (inactive) | > 10
12 | CCCn1nc([N+](=O)[O-])c(C(C#N)c2nc3ccccc3s2)c(Cl)c1=O (centres undefined) | 1.5 µM | 2.16
13 | CCOC(=O)C1=C(CSc2nc(-c3ccccc3)ccc2C#N)OC(N)=C(C#N)C1c1cccnc1 (centres undefined) | > 10 µM (inactive) | > 10
14 | O=C1c2ccccc2C(=O)c2c1oc(C(F)(F)F)c2C(=O)c1ccccc1 | 1.3 µM | 2.2
15 | Cc1ccc(CN2CCN(/N=C/c3cc(Br)ccc3O)CC2)cc1 | > 10 µM (inactive) | > 10
16 | CCCCC1(CCCC)C(=O)NC(=Nc2cccc(C)c2)NC1=O | > 10 µM (inactive) | > 10
17 | Cc1nc(NC(=O)c2ccccc2)sc1-c1csc(NCc2ccccc2)n1 | 1.96 µM | > 10
18 | O=C1NC2(Nc3ccccc31)C(=O)Nc1ccccc12 (centres undefined) | > 10 µM (inactive) | > 10
19 | COc1cccc(C(=O)N2CCN(C3CCC(c4ccccc4)CC3)CC2)c1OC (centres undefined) | 23.3 µM | 23.9
20 | COc1ccccc1N1CCN(C2CCN(C(=O)c3cc(OC)c(OC)c(OC)c3)CC2)CC1 | > 10 µM (inactive) | > 10
21 | CCOC(=O)C1=C(N)N2C(=O)C(C)SC2=C(C(=O)OC)C1c1ccccc1OC (centres undefined) | > 10 µM (inactive) | 0.163

Row | Structure (SMILES) | IC50 [1] | IC50 [2] [µM]
22 | CCOC(=O)NC(Nc1ccc(S(N)(=O)=O)cc1)(C(=O)OCC)C(F)(F)F (centres undefined) | > 10 µM (inactive) | > 10
23 | COCCNC(=O)C(c1ccc(F)cc1)N(CC1CCCO1)C(=O)CCC(=O)Nc1ccccn1 (centres undefined) | > 10 µM (inactive) | > 10
24 | O=C(Nc1nnc(-c2ccc3c(c2)CCCC3)o1)c1ccc(Cl)cc1Cl | 1.18 µM | 3.46
25 | Cc1ccc(C(=O)NCc2occc2C(=O)O)o1 | > 10 µM (inactive) | > 10
26 | O=C1CC(N2CCN(c3ccc(Cl)c(Cl)c3)CC2)C(=O)N1 (centres undefined) | 15.3 µM | > 10
27 | N#Cc1nc(COc2ccc(-c3ccccc3)cc2)oc1NCCCN1CCOCC1 | 21.4 µM (inactive) | 15.4
28 | CCOC(=O)c1cc2c(ccn2C)n1CC(=O)N1CCN(c2ccccc2OC)CC1 | > 10 µM (inactive) | > 10
29 | Cc1ccc(SC(=O)COc2ccc(C)c(C)c2)cc1 | > 10 µM (inactive) | > 10
30 | COc1ccc(-c2nnc(CSc3nc4ccccc4c(=O)n3C)o2)cc1OC | > 10 µM (inactive) | > 10
31 | CCOC(=O)c1cccnc1SCc1cc(=O)n2ccccc2n1 | > 10 µM (inactive) | > 10
32 | CCn1c(SCC(=O)N2CCCc3ccccc32)nnc1-c1ccco1 | > 10 µM (inactive) | > 10
33 | Cc1cc(O)c(/C=N/Nc2ccc(Cl)cc2)c(=O)o1 | 5.43 µM (inactive) | 4.69
34 | O=C(N/N=C/c1ccc([N+](=O)[O-])o1)c1cc(-c2cccc(Br)c2)nc2ccccc12 | 0.918 µM | 4.65
35 | Cc1ccc(/C=N/n2cnc3sc(-c4ccccc4)cc3c2=O)o1 | > 10 µM (inactive) | > 10
36 | COc1ccc(N2CCN(C(=O)CCNS(=O)(=O)c3ccc(Br)s3)CC2)cc1 | > 10 µM (inactive) | > 10
37 | COc1ccc(NC(=S)NC(NC(=O)c2ccc(Cl)cc2Cl)C(Cl)(Cl)Cl)c([N+](=O)[O-])c1 (centres undefined) | > 10 µM (inactive) | > 10
38 | O=C(OCn1ncc(Br)c(Br)c1=O)c1ccc(F)cc1 | 3.91 µM | 5.38
39 | CC(=O)c1ccc(N2CCN(C(=O)c3ccc(Br)cc3)CC2)c(F)c1 | 1.52 µM | 6.58
40 | O=C(c1ccc(Cl)cc1Cl)N1CCC(c2nc3c(nnn3Cc3ccco3)c(=O)[nH]2)CC1 | > 10 µM (inactive) | > 10
41 | CCN(CC)C(=O)C1CCN(Cc2ccc(Br)cc2)CC1 | > 10 µM (inactive) | > 10
42 | Cc1cc(C(C)(C)C)ccc1OCCN1CCCC1 | > 10 µM (inactive) | > 10

Row | Structure (SMILES) | IC50 [1] | IC50 [2] [µM]
43 | O=C(COc1ccc(Cl)cc1Cl)N1CCN(C/C=C/c2ccccc2)CC1 | 13.2 µM (inactive) | 7.14
44 | CCCCCCCCNc1ncnc2ccccc12 | > 10 µM (inactive) | 14.8
45 | O=c1c2cccc3c2c(nn1CN1CCOCC1)-c1ccccc1-3 | > 10 µM (inactive) | > 10
46 | Cc1cc(N2C(=O)C3CCCN3C2c2sccc2C)no1 (centres undefined) | > 10 µM (inactive) | > 10
47 | Cc1cccc2cc(C#N)c(NCCCn3ccnc3)nc12 | > 10 µM (inactive) | > 10
48 | COCCCn1c2nc3ccccc3nc2c2c(=O)n(-c3ccccc3OC)cnc21 | > 10 µM (inactive) | > 10
49 | O=C(NCc1ccc2c(c1)OCO2)C1CCCN1C(=O)Nc1ccccc1 (centres undefined) | > 10 µM (inactive) | > 10
50 | Cn1c(=O)c2nc(NCc3ccccc3)cnc2n(C)c1=O | > 10 µM (inactive) | > 10
51 | O=C(Cn1ncc2c3ccccc3n(Cc3ccccc3F)c2c1=O)N1CCC2(CC1)OCCO2 | > 10 µM (inactive) | > 10
52 | Cc1ccn2cc(-c3nonc3C)cc2c1 | > 10 µM (inactive) | > 10
53 | Cn1nnc2cc(C(=O)Nc3cccnc3)ccc21 | > 10 µM (inactive) | > 10
54 | O=C(OCn1ncc(Cl)c(Cl)c1=O)c1ccccc1Cl | 5.41 µM | 16.6
55 | O=C(NCC(=O)N(c1cccnc1)C(C(=O)NCc1ccco1)c1ccccc1)c1ccco1 (centres undefined) | > 10 µM (inactive) | > 10
56 | NC(=O)c1c(NC(=O)CN2C(=O)CCC2=O)sc2c1CCCCC2 | > 10 µM (inactive) | > 10
57 | CCc1n[nH]c2c1/C(=N\O)CC(C)(C)C2 | > 10 µM (inactive) | > 10
58 | c1ccc(COc2ccc(CN3CCN(c4ccccn4)CC3)cc2)cc1 | > 10 µM (inactive) | > 10
59 | O=C(Nc1nnc(-c2ccc3c(c2)CCCC3)o1)c1ccccc1Cl | 1.58 µM | 10.7
60 | Clc1ccc2[nH]c3c(NCC4CCCO4)ncnc3c2c1 (centres undefined) | > 10 µM (inactive) | > 10
61 | CCOc1cccc(C(=O)Nc2cccnc2)c1 | > 10 µM (inactive) | > 10
62 | COc1ccccc1N1CCN(Cc2ccccc2F)CC1 | > 10 µM (inactive) | > 10
63 | COc1ccc(N2CCN(c3oc(-c4ccco4)nc3C#N)CC2)cc1 | > 10 µM (inactive) | > 10

Row | Structure (SMILES) | IC50 [1] | IC50 [2] [µM]
64 | O=C(NCc1ccc2c(c1)OCO2)c1ccc(-n2cnnn2)cc1 | > 10 µM (inactive) | > 10
65 | COc1ccc2c(c1)C(C)=CC(C)(C)N2C(=O)CSc1nnc(-c2ccc(C)cc2)o1 | > 10 µM (inactive) | > 10
66 | Clc1ccc(Cn2nnc(-c3ccc(CN4CCOCC4)cc3)n2)cc1 | > 10 µM (inactive) | > 10
67 | COC(=O)c1ccc(CSc2nnc(NC(C)C)s2)cc1 | > 10 µM (inactive) | > 10
68 | C=C(C)C1CC=C(CN2CCC(C(=O)OCC)CC2)CC1 (centres undefined) | > 10 µM (inactive) | > 10
69 | O=c1cccc2n1CC1CC2CN(S(=O)(=O)c2ccccc2)C1 (centres undefined) | > 10 µM (inactive) | > 10
70 | Clc1ccc(-c2n[nH]c3c2CCC3)cc1Cl | 1.07 µM | 1.81
71 | CC(=O)NC1C(c2nc3ccccc3s2)=C(c2ccccc2)C(=O)N1c1ccc(C)cc1 (centres undefined) | 2.18 µM (inactive) | 1.92
72 | CCC(C)(C)NC(=O)CN(C(=O)CCC(=O)Nc1ccccn1)c1ccc(F)c(Cl)c1 | > 10 µM (inactive) | > 10
73 | O=C(Nc1nnc(C2CC2)o1)c1ccc(S(=O)(=O)N2CCCc3ccccc32)cc1 | 11.9 µM (inactive) | 3.17
74 | Cc1cc(NCCCN2CCOCC2)n2ncc(-c3ccc(Cl)cc3)c2n1 | > 10 µM (inactive) | > 10
75 | Cc1cccc(-c2c3c(=O)n(C)c(=O)n(C)c3cn2C2CCCCC2)c1 | > 10 µM (inactive) | > 10
76 | COCCNc1cc(C)nc2c3c(C)cc(C)nc3nn12 | > 10 µM (inactive) | > 10
77 | O=C(Nc1nc(-c2ccccn2)cs1)c1ncc(Cl)c(Cl)c1Cl | 2.06 µM | 13.3
78 | CC(C)OC(=O)CSc1nnc(-c2ccc(Cl)cc2)n1N | > 10 µM (inactive) | > 10
79 | COc1ccc(C2=NC(C(F)(F)F)(C(F)(F)F)c3c(n(C)c(=O)n(C)c3=O)N2)cc1 | > 10 µM (inactive) | > 10
80 | COc1ccc(NC(=O)c2ccc(CN3CCN(c4ccccc4)CC3)cc2)cc1 | > 10 µM (inactive) | > 10
81 | CN1C(=O)/C(=C/c2cccn2-c2ccc3ccccc3c2)C(=O)NC1=S | 14.2 µM (inactive) | 6.58
82 | Cc1cc(OCC(F)(F)C(F)(F)C(F)(F)C(F)(F)C(F)(F)C(F)F)nc(N)n1 | > 10 µM (inactive) | > 10
